Laboratory results from the NIST ThermoML archive (doi:10.1016/j.jct.2018.02.019).

Assay: mn = molality of the nth substance listed, in mol/kg
Details: 298.15 K, Ring tensiometer

C[C@H](CCC(=O)NCCS(=O)(=O)[O-])[C@H]1CC[C@H]2[C@@H]3[C@H](O)C[C@@H]4C[C@H](O)CC[C@]4(C)[C@H]3C[C@H](O)[C@]12C.[Na+] [sodium taurocholate] + O
Details	surface tension liquid-gas [mN/m]
m1 = 0.00062	53.39
m1 = 0.00093	50.95
m1 = 0.00149	47.64
m1 = 0.00208	45.58
m1 = 0.00263	44.18
m1 = 0.00313	43
m1 = 0.00354	42.08
m1 = 0.00392	41.48
m1 = 0.00455	40.95
m1 = 0.00489	40.5
m1 = 0.00556	40.48
m1 = 0.0062	40.51
m1 = 0.00714	40.45
m1 = 0.00804	40.5
